Data taken from patent publication EP0486921A1, “N-acetyl-L-cysteine magnesium salt and pharmaceutical compositions containing it” (ZAMBON GROUP S.p.A., priority 1990, dated 1992).
Counter-ions that a name gives are not always drawn.

How the values were obtained:
anesthetized guinea pigs = conditions: guinea pig, in vivo
Method: The experiments were carried out according to the Konzett and Rössler technique [Arch. Exp. Patol. Pharmakol., 195, 71, (1940)] in anesthetized guinea pigs, where the potential increase in total airway resistance induced by the tested compounds was registered as a change in air overflow.
Male guinea pigs (500-600 g body weight) were anesthetized with ethylurethane (1.25 g/kg/i.p.) and the anesthesia was maintained by additional doses of ethylurethane given by intravenous route.
A catheter was inserted into the jugular vein for the administration of histamine.
The guinea pigs were subjected to forced ventilation at constant volume and at 72 breaths/minute.
Basal overflow value was set up to 8 cm H20.
Equimolecular doses of N-acetyl-L-cysteine in the form of free acid, lysine salt, calcium salt and magnesium salt [(NAC)2Mg] were administered as a micronized powder in trachea by forced insufflation.
The bronchoconstrictive effect was evaluated as the equivalent dose of histamine causing the same change in air overflow.
In control experiments the effect of forced insufflation of lactose was evaluated.

Solubility in water = format: physicochemical
Text: solubility in water: about 50%

pH of aqueous solution = format: physicochemical; conditions: 1 % aqueous solution
Text: pH (1 % aqueous solution) = 5.35

predisposed subjects = conditions: the patent says tested doses were much lower than therapeutically useful doses; cited from earlier work

Row | Structure (SMILES) | Histamine dose X-±S.E. (dose of hystamine causing a bronchospasm equivalent to the change in air overflow) (anesthetized guinea pigs) | bronchoconstrictive effect compared with N-acetyl-L-cysteine (anesthetized guinea pigs) | solubility (Solubility in water) | pH (pH of aqueous solution) | induction of bronchospasm (predisposed subjects)
1 | CC(=O)N[C@@H](CS)C(=O)O [(NAC)2Mg, N-acetyl-L-cysteine magnesium salt] | 3.96±0.28 ^(**) µg/kg/i.v. | significantly lower | ~500 mg/mL | 5.35 | 
2 | CC(=O)N[C@@H](CS)C(=O)O [NAC, N-acetyl-L-cysteine] | 5.81±0.93 µg/kg/i.v. |  |  |  | 
3 | CC(=O)N[C@@H](CS)C(=O)O [NAC lysine salt] | 4.53±0.40 µg/kg/i.v. |  |  |  | does not induce bronchospasm
4 | CC(=O)N[C@@H](CS)C(=O)O [NAC calcium salt] | 7.03±1.48 µg/kg/i.v. | not significantly different |  |  | 
